Laboratory results as given in US20100092443A1, “NOVEL COMBINATIONS OF NITROGENATED HETEROCYCLIC ANTIBACTERIAL COMPOUNDS WITH OTHER ANTIBACTERIAL COMPOUNDS AND THE USE OF SAME AS DRUGS” (priority 2008, published 2010).
Converted amounts (≈) assume the structure as drawn. Read-outs that look alike come from different tables or passages of the source.

How the values were obtained:
Format in all cases: cell-based
K. oxytoca = assay: MIC, dilutions in liquid medium, alone and combined with NXL105; details: Klebsiella oxytoca, read-out: MIC
E. coli = assay: microbe, parasite or virus in culture; details: Escherichia coli
Description: (§1) In vitro activity, method of dilutions in liquid medium:
(§2) A series of test 96-well microtiter plates are prepared in which the same quantity of sterile nutritive medium is distributed. […] After 24 h of incubation in a 37° C. oven, growth inhibition is evaluated by transillumination, which makes it possible to determine the minimum inhibitory concentrations (MICS) expressed in μg/ml.

Pseudomonas aeruginosa = assay: MIC, dilutions in liquid medium, alone and combined with NXL105; details: Pseudomonas aeruginosa
Description: as §1
A series of test 96-well microtiter plates are prepared in which the same quantity of sterile nutritive medium is distributed. Increasing quantities of the compound to be studied, namely the antibacterial compound alone and the inventive combination with the compound of formula (I) of example 1, are distributed in each plate in the respective proportions 2:1 and 4:1, and then each plate is inoculated with a bacterial strain of Pseudomonas aeruginosa. After 24 h of incubation in a 37° C. oven, growth inhibition is evaluated by transillumination, which makes it possible to determine the minimum inhibitory concentrations (MICS) expressed in μg/ml.

C. freundii = assay: as above; details: Citrobacter freundii, read-out: MIC
K. pneumoniae = assay: as above; details: Klebsiella pneumoniae, read-out: MIC
Description: as §1, §2

E. cloacae = assay: as above; details: Enterobacter cloacae, read-out: MIC
Description: as §1, §2

## CC(C)(O/N=C(\C(=O)N[C@@H]1C(=O)N2C(C(=O)[O-])=C(C[n+]3ccccc3)CS[C@H]12)c1csc(N)n1)C(=O)O [Ceftazidime]
K. oxytoca; K. oxytoca 1431, TEM-129
  MIC: > 32 µg/mL
K. oxytoca; K. oxytoca 16944, OXY-2, TEM-1
  MIC: > 32 µg/mL
E. coli; 24 h, E. coli 2138, KPC-2 + TEM-1
  MIC: > 32 µg/mL
E. coli; 24 h, E. coli (no alias), CTX-M-15 + TEM-1 + OXA-1
  MIC: > 32 µg/mL
E. coli; 24 h, E. coli IND, VEB-1 + CMY-2
  MIC: > 32 µg/mL
E. coli; 24 h, E. coli TN06, CTX-M-2 + TEM-1
  MIC: 16 µg/mL
E. coli; 24 h, E. coli TN13, CTX-M-14 + CMY-2 + TEM-1
  MIC: > 32 µg/mL
E. coli; 24 h, E. coli Tunisie clone E4, CTX-M-16 + TEM-1
  MIC: > 32 µg/mL
E. coli; E. coli (no alias), Cephalosporinase, read-out: MIC
  MIC: > 32 µg/mL
E. coli; E. coli (no alias), SHV-4
  MIC: > 32 µg/mL
E. coli; E. coli (no alias), TEM-3
  MIC: 32 µg/mL (≈ 58.5 µM)
Pseudomonas aeruginosa; ATCC27853, P. aeruginosa ATCC 27853
  MIC: 0.5 µg/mL
Pseudomonas aeruginosa; P. aeruginosa 391HG2
  MIC: > 32 µg/mL
Pseudomonas aeruginosa; P. aeruginosa 391HG21
  MIC: > 32 µg/mL
Pseudomonas aeruginosa; P. aeruginosa 391HG38
  MIC: > 32 µg/mL
Pseudomonas aeruginosa; P. aeruginosa 391HG39
  MIC: 1 µg/mL
Pseudomonas aeruginosa; P. aeruginosa 391HG58
  MIC: > 32 µg/mL
Pseudomonas aeruginosa; P. aeruginosa 391HG118
  MIC: 4 µg/mL
Pseudomonas aeruginosa; P. aeruginosa 391HG123
  MIC: 32 µg/mL
Pseudomonas aeruginosa; P. aeruginosa 391HG158
  MIC: > 32 µg/mL
Pseudomonas aeruginosa; P. aeruginosa 391HG271
  MIC: > 32 µg/mL
Pseudomonas aeruginosa; P. aeruginosa 391HG329
  MIC: > 32 µg/mL
Pseudomonas aeruginosa; P. aeruginosa 391K1455
  MIC: 32 µg/mL
Pseudomonas aeruginosa; P. aeruginosa 391K1523
  MIC: 16 µg/mL
Pseudomonas aeruginosa; P. aeruginosa 391K1525
  MIC: 32 µg/mL
Pseudomonas aeruginosa; P. aeruginosa 391K1536
  MIC: 32 µg/mL
Pseudomonas aeruginosa; P. aeruginosa 391K2376
  MIC: 32 µg/mL
Pseudomonas aeruginosa; P. aeruginosa 391K2379
  MIC: 32 µg/mL
Pseudomonas aeruginosa; P. aeruginosa 391K2415
  MIC: 32 µg/mL
Pseudomonas aeruginosa; P. aeruginosa 391KB9
  MIC: > 32 µg/mL
Pseudomonas aeruginosa; P. aeruginosa 391KB14
  MIC: 32 µg/mL
Pseudomonas aeruginosa; P. aeruginosa 391KB21
  MIC: > 32 µg/mL
Pseudomonas aeruginosa; P. aeruginosa 391KB33
  MIC: 32 µg/mL
Pseudomonas aeruginosa; P. aeruginosa 391KB38
  MIC: > 32 µg/mL
Pseudomonas aeruginosa; P. aeruginosa 391KB62
  MIC: > 32 µg/mL
Pseudomonas aeruginosa; P. aeruginosa 391KB68
  MIC: > 32 µg/mL
Pseudomonas aeruginosa; P. aeruginosa 391KB90
  MIC: > 32 µg/mL
Pseudomonas aeruginosa; P. aeruginosa 391KB91
  MIC: > 32 µg/mL
Pseudomonas aeruginosa; P. aeruginosa 391KB99
  MIC: > 32 µg/mL
Pseudomonas aeruginosa; P. aeruginosa 391KB103
  MIC: 32 µg/mL
Pseudomonas aeruginosa; P. aeruginosa 391KB105
  MIC: > 32 µg/mL
Pseudomonas aeruginosa; P. aeruginosa 391KB106
  MIC: 32 µg/mL
Pseudomonas aeruginosa; P. aeruginosa 391KB107
  MIC: > 32 µg/mL
Pseudomonas aeruginosa; P. aeruginosa 391KB114
  MIC: > 32 µg/mL
Pseudomonas aeruginosa; P. aeruginosa 391KB127
  MIC: > 32 µg/mL
Pseudomonas aeruginosa; P. aeruginosa 391KB135
  MIC: > 32 µg/mL
Pseudomonas aeruginosa; P. aeruginosa 391KB136
  MIC: > 32 µg/mL
Pseudomonas aeruginosa; P. aeruginosa 391KB137
  MIC: > 32 µg/mL
Pseudomonas aeruginosa; P. aeruginosa 391KB138
  MIC: > 32 µg/mL
Pseudomonas aeruginosa; P. aeruginosa 391KB139
  MIC: > 32 µg/mL
Pseudomonas aeruginosa; P. aeruginosa 391KB140
  MIC: 16 µg/mL
Pseudomonas aeruginosa; P. aeruginosa 391KB141
  MIC: > 32 µg/mL
Pseudomonas aeruginosa; P. aeruginosa 391KB142
  MIC: > 32 µg/mL
Pseudomonas aeruginosa; P. aeruginosa 391KB143
  MIC: > 32 µg/mL
Pseudomonas aeruginosa; P. aeruginosa 391KB144
  MIC: > 32 µg/mL
Pseudomonas aeruginosa; P. aeruginosa 391QBR2
  MIC: > 32 µg/mL
Pseudomonas aeruginosa; P. aeruginosa 391QBR3
  MIC: > 32 µg/mL
Pseudomonas aeruginosa; P. aeruginosa 391QBR4
  MIC: > 32 µg/mL
Pseudomonas aeruginosa; P. aeruginosa 391QBR5
  MIC: > 32 µg/mL
Pseudomonas aeruginosa; P. aeruginosa 391QBR7
  MIC: > 32 µg/mL
Pseudomonas aeruginosa; P. aeruginosa 391QBR8
  MIC: > 32 µg/mL
Pseudomonas aeruginosa; P. aeruginosa 391QBR9
  MIC: > 32 µg/mL
Pseudomonas aeruginosa; P. aeruginosa 391QBR10
  MIC: > 32 µg/mL
Pseudomonas aeruginosa; P. aeruginosa C3719
  MIC: > 32 µg/mL
C. freundii; 24 h, C. freundii (no alias), AmpC + TEM-1
  MIC: > 32 µg/mL
C. freundii; C. freundii (no alias, table row r121), AmpC
  MIC: > 32 µg/mL
C. freundii; C. freundii (no alias, table row r122), AmpC
  MIC: > 32 µg/mL
C. freundii; C. freundii (no alias, table row r123), AmpC
  MIC: > 32 µg/mL
C. freundii; C. freundii (no alias, table row r125), AmpC
  MIC: 16 µg/mL
K. pneumoniae; 24 h, K. pneumoniae 60, SHV-2 + TEM-2 + PER
  MIC: > 32 µg/mL
K. pneumoniae; 24 h, K. pneumoniae 157, SHV-5 + TEM-26
  MIC: > 32 µg/mL
K. pneumoniae; 24 h, K. pneumoniae 181, SHV-5 + TEM-10
  MIC: > 32 µg/mL
K. pneumoniae; 24 h, K. pneumoniae 236, SHV-5 + TEM-10
  MIC: > 32 µg/mL
K. pneumoniae; 24 h, K. pneumoniae 238, SHV-2 + TEM-12 + CTX-M-2
  MIC: > 32 µg/mL
K. pneumoniae; 24 h, K. pneumoniae 243, SHV-5 + TEM-63
  MIC: > 32 µg/mL
K. pneumoniae; 24 h, K. pneumoniae 253, SHV-2 + TEM-12 + CTX-M-2
  MIC: > 32 µg/mL
K. pneumoniae; 24 h, K. pneumoniae 427, SHV-1 + TEM-1B + CTX-M-3
  MIC: > 32 µg/mL
K. pneumoniae; 24 h, K. pneumoniae 441, SHV-1 + TEM-2 + PER
  MIC: > 32 µg/mL
K. pneumoniae; 24 h, K. pneumoniae 444, SHV-5 + TEM-2 + PER
  MIC: > 32 µg/mL
K. pneumoniae; 24 h, K. pneumoniae 449, SHV-1 + TEM-2 + PER
  MIC: > 32 µg/mL
K. pneumoniae; 24 h, K. pneumoniae 465, TEM-1B + CTX-M-2
  MIC: > 32 µg/mL
K. pneumoniae; 24 h, K. pneumoniae 1734, FOX-3 + TEM-1
  MIC: > 32 µg/mL
K. pneumoniae; 24 h, K. pneumoniae 9701, CMY-4 + TEM-1
  MIC: > 32 µg/mL
K. pneumoniae; 24 h, K. pneumoniae KOL, MOX-2 + SHV-5 + TEM-1
  MIC: > 32 µg/mL
K. pneumoniae; 24 h, K. pneumoniae Patient 1BHR, VIM-4 + CTX-M-15 = CMY-4 + TEM-1
  MIC: > 32 µg/mL
K. pneumoniae; 24 h, K. pneumoniae Patient F, VIM-1 + SHV-5
  MIC: > 32 µg/mL
K. pneumoniae; 24 h, K. pneumoniae SLK54, ACC-1 + TEM-1
  MIC: > 32 µg/mL
K. pneumoniae; 24 h, K. pneumoniae TN58467, DHA-1 + SHV-2a + TEM-1
  MIC: > 32 µg/mL
K. pneumoniae; 24 h, K. pneumoniae Tunisie clone K1, CTX-M-16 + OXA-1
  MIC: > 32 µg/mL
K. pneumoniae; 24 h, K. pneumoniae Tunisie clone K4, CTX-M-15 + TEM-1 + OXA-1
  MIC: > 32 µg/mL
K. pneumoniae; ATCC700603, K. pneumoniae ATCC 700603, SHV-18
  MIC: > 32 µg/mL
K. pneumoniae; K. pneumoniae 26, SHV-5
  MIC: > 32 µg/mL
K. pneumoniae; K. pneumoniae CL5761, KPC-3
  MIC: > 32 µg/mL
K. pneumoniae; K. pneumoniae CL5762, KPC-3
  MIC: > 32 µg/mL
K. pneumoniae; K. pneumoniae CL5763, KPC-3
  MIC: > 32 µg/mL
K. pneumoniae; K. pneumoniae KP04, CTX-M-14
  MIC: 32 µg/mL
K. pneumoniae; K. pneumoniae VA8, KPC-3
  MIC: > 32 µg/mL
K. pneumoniae; K. pneumoniae VAKP, KPC-2
  MIC: > 32 µg/mL
K. pneumoniae; K. pneumoniae YC, KPC-2
  MIC: > 32 µg/mL
E. cloacae; 24 h, E. cloacae 7506, KPC-2 + TEM-1 + KLUC-2
  MIC: > 32 µg/mL
E. cloacae; E. cloacae (no alias), AmpC
  MIC: > 32 µg/mL
E. cloacae; E. cloacae, AmpC
  MIC: 32 µg/mL
